Consider 19 compounds from patent publication US9062071B2, “Substituted piperidines as HDM2 inhibitors” (Merck Sharp & Dohme Corp, priority 2011, dated 2015).

HDM2 protein, sequence (Q00987 whole entry): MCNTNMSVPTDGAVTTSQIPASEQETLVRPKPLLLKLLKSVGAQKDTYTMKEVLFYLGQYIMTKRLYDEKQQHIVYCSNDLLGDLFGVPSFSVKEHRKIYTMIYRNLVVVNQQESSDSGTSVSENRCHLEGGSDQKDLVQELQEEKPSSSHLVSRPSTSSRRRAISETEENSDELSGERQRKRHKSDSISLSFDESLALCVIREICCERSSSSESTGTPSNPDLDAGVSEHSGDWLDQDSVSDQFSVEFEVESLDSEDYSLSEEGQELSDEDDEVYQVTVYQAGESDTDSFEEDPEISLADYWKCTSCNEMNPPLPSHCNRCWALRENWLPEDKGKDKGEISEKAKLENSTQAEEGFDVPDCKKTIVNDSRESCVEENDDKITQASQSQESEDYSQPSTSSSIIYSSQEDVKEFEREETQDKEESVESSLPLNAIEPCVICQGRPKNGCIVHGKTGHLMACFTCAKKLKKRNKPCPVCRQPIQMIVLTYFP

For the assay, the target named is HDM2 protein (Homo sapiens, UniProt Q00987). Put plainly: fluorescence polarization screening assay (FP IC50). The class given is binding. The settings on record: class symbols. The protocol:
The compounds were evaluated to determine activity at the HDM2 protein by known methods such as the fluorescence polarization screening assay that measures the inhibitory concentration that achieves 50% of maximal activity (FP IC50) and the dissociation constant for inhibitor binding (FP Ki). [Zhang et al., J. Analytical Biochemistry 331: 138-146 (2004)].
(In general: Fluorescence polarisation rises when a labelled molecule tumbles more slowly, as on binding a larger partner.)
Turning to `CCC[C@H]1N(C(=O)c2ncccc2C(F)(F)F)CCC[C@@]1(Oc1csc(C(F)(F)F)c1)C(=O)N1CCc2sc(Cl)cc2C1C(=O)O` (stereo partly drawn) [Compound A14, 2-chloro-5-{[(2R,3S)-2-propyl-1-{[3-(trifluoromethyl)pyridin-2-yl]carbonyl}-3-{[5-(trifluoromethyl)thiophen-3-yl]oxy}piperidin-3-yl]carbonyl}-4,5,6,7-tetrahydrothieno[3,2-c]pyridine-4-carboxylic acid], the IC50 (as a rule, the midpoint of a concentration-inhibition curve) lay within 1 to 100 nM. Under `CCC[C@H]1N(C(=O)c2ncccc2C(F)(F)F)CCC[C@@]1(Oc1csc(C(F)(F)F)c1)C(=O)N1CCc2cc(Cl)ccc2C1CN1CCCC1` (stereo partly drawn) [Compound A15, 6-chloro-2-{[(2R,3S)-2-propyl-1-{[3-(trifluoromethyl)pyridin-2-yl]carbonyl}-3-{[5-(trifluoromethyl)thiophen-3-yl]oxy}piperidin-3-yl]carbonyl}-1-(pyrrolidin-1-ylmethyl)-1,2,3,4-tetrahydroisoquinoline] stands 101 to 20000 nM; under `COCC1c2ccc(Cl)cc2CCN1C(=O)[C@]1(Oc2csc(C(F)(F)F)c2)CCCN(C(=O)c2ncccc2C(F)(F)F)[C@@H]1CCN1CCCC1` (stereo partly drawn) [Compound A16, 6-chloro-1-(methoxymethyl)-2-{[(2R,3S)-2-(2-pyrrolidin-1-ylethyl)-1-{[3-(trifluoromethyl)pyridin-2-yl]carbonyl}-3-{[5-(trifluoromethyl)thiophen-3-yl]oxy}piperidin-3-yl]carbonyl}-1,2,3,4-tetrahydroisoquinoline], 1 to 100 nM; under `COCC1c2ccc(Cl)cc2CCN1C(=O)[C@]1(Oc2csc(C(F)(F)F)c2)CCCN(C(=O)c2ncccc2C(F)(F)F)[C@@H]1CCN1CCOCC1` (stereo partly drawn) [Compound A17, 6-chloro-1-(methoxymethyl)-2-{[(2R,3S)-2-(2-morpholin-4-ylethyl)-1-{[3-(trifluoromethyl)pyridin-2-yl]carbonyl}-3-{[5-(trifluoromethyl)thiophen-3-yl]oxy}piperidin-3-yl]carbonyl}-1,2,3,4-tetrahydroisoquinoline], 1 to 100 nM. Consider `COCC1c2ccc(Cl)cc2CCN1C(=O)[C@]1(Oc2csc(C(F)(F)F)c2)CCCN(C(=O)c2ncccc2C(F)(F)F)[C@@H]1CC(=O)O` (stereo partly drawn) [Compound A18, [(2R,3S)-3-{[6-chloro-1-(methoxymethyl)-3,4-dihydroisoquinolin-2(1H)-yl]carbonyl}-1-{[3-(trifluoromethyl)pyridin-2-yl]carbonyl}-3-{[5-(trifluoromethyl)thiophen-3-yl]oxy}piperidin-2-yl]acetic acid], for which the IC50 was in the range of 1 to 100 nM. Under `CCC[C@H]1N(C(=O)c2ncccc2C(F)(F)F)CCC[C@@]1(Oc1csc(C(F)(F)F)c1)C(=O)N1CCc2cc(Cl)sc2C1C(=O)O` (stereo partly drawn) [Compound A19, 2-chloro-6-{[(2R,3S)-2-propyl-1-{[3-(trifluoromethyl)pyridin-2-yl]carbonyl}-3-{[5-(trifluoromethyl)thiophen-3-yl]oxy}piperidin-3-yl]carbonyl}-4,5,6,7-tetrahydrothieno[2,3-c]pyridine-7-carboxylic acid] stands 1 to 100 nM; under `COCC1c2ccc(Cl)cc2CCN1C(=O)[C@]1(Oc2csc(C(F)(F)F)c2)CCCN(C(=O)c2ncccc2C(F)(F)F)[C@@H]1CCN1CCC(CCO)CC1` (stereo partly drawn) [Compound A20, 2-(1-{2-[(2R,3S)-3-{[6-chloro-1-(methoxymethyl)-3,4-dihydroisoquinolin-2(1H)-yl]carbonyl}-1-{[3-(trifluoromethyl)pyridin-2-yl]carbonyl}-3-{[5-(trifluoromethyl)thiophen-3-yl]oxy}piperidin-2-yl]ethyl}piperidin-4-yl)ethanol], 1 to 100 nM; under `COCCN1CCN(CC[C@H]2N(C(=O)c3ncccc3C(F)(F)F)CCC[C@@]2(Oc2csc(C(F)(F)F)c2)C(=O)N2CCc3cc(Cl)ccc3C2COC)CC1` (stereo partly drawn) [Compound A21, 6-chloro-2-{[(2R,3S)-2-{2-[4-(2-methoxyethyl)piperazin-1-yl]ethyl}-1-{[3-(trifluoromethyl)pyridin-2-yl]carbonyl}-3-{[5-(trifluoromethyl)thiophen-3-yl]oxy}piperidin-3-yl]carbonyl}-1-(methoxymethyl)-1,2,3,4-tetrahydroisoquinoline], 1 to 100 nM. On to `COCC1c2ccc(Cl)cc2CCN1C(=O)[C@]1(Oc2csc(C(F)(F)F)c2)CCCN(C(=O)c2ncccc2C(F)(F)F)[C@@H]1CCNC1CCOCC1` (stereo partly drawn) [Compound A22, N-{2-[(2R,3S)-3-{[6-chloro-1-(methoxymethyl)-3,4-dihydroisoquinolin-2(1H)-yl]carbonyl}-1-{[3-(trifluoromethyl)pyridin-2-yl]carbonyl}-3-{[5-(trifluoromethyl)thiophen-3-yl]oxy}piperidin-2-yl]ethyl}tetrahydro-2H-pyran-4-amine], for which the IC50 lay in the range of 1 to 100 nM. Under `CCC[C@H]1N(C(=O)c2ncccc2C(F)(F)F)CCC[C@@]1(Oc1csc(C(F)(F)F)c1)C(=O)N1CCc2sc(Cl)cc2C1CCC(=O)O` (stereo partly drawn) [Compound A23, 3-(2-chloro-5-{[(2R,3S)-2-propyl-1-{[3-(trifluoromethyl)pyridin-2-yl]carbonyl}-3-{[5-(trifluoromethyl)thiophen-3-yl]oxy}piperidin-3-yl]carbonyl}-4,5,6,7-tetrahydrothieno[3,2-c]pyridin-4-yl)propanoic acid] stands 1 to 100 nM; under `CCC[C@H]1N(C(=O)c2ncccc2C(F)(F)F)CCC[C@@]1(Oc1csc(C(F)(F)F)c1)C(=O)N1CCc2sc(Cl)cc2C1CCC(N)=O` (stereo partly drawn) [Compound A24, 3-(2-chloro-5-{[(2R,3S)-2-propyl-1-{[3-(trifluoromethyl)pyridin-2-yl]carbonyl}-3-{[5-(trifluoromethyl)thiophen-3-yl]oxy}piperidin-3-yl]carbonyl}-4,5,6,7-tetrahydrothieno[3,2-c]pyridin-4-yl]propanamide], 101 to 20000 nM. Under `CCC[C@H]1N(C(=O)c2ncccc2C(F)(F)F)CCC[C@@]1(Oc1csc(C(F)(F)F)c1)C(=O)N1CCc2sc(Cl)cc2C1CC(C)(C)C(=O)O` (stereo partly drawn) [Compound A25, 3-(2-chloro-5-{[(2R,3S)-2-propyl-1-{[3-(trifluoromethyl)pyridin-2-yl]carbonyl}-3-{[5-(trifluoromethyl)thiophen-3-yl]oxy}piperidin-3-yl]carbonyl}-4,5,6,7-tetrahydrothieno[3,2-c]pyridin-4-yl)-2,2-dimethylpropanoic acid] stands 1 to 100 nM; under `CCC[C@H]1N(C(=O)c2ncccc2C(F)(F)F)CCC[C@@]1(Oc1csc(C(F)(F)F)c1)C(=O)N1CCc2sc(Cl)cc2C1CC(C)(C)C(=O)O` (stereo partly drawn) [Compound A26, 3-(2-chloro-5-{[(2R,3S)-2-propyl-1-{[3-(trifluoromethyl)pyridin-2-yl]carbonyl}-3-{[5-(trifluoromethyl)thiophen-3-yl]oxy}piperidin-3-yl]carbonyl}-4,5,6,7-tetrahydrothieno[3,2-c]pyridin-4-yl)-2,2-dimethylpropanoic acid], 1 to 100 nM. `CCC[C@H]1N(C(=O)c2ncccc2C(F)(F)F)CCC[C@@]1(Oc1csc(C(F)(F)F)c1)C(=O)N1CCc2sc(Cl)cc2C1CCC(=O)NC` (stereo partly drawn) [Compound A27, 3-(2-chloro-5-{[(2R,3S)-2-propyl-1-{[3-(trifluoromethyl)pyridin-2-yl]carbonyl}-3-{[5-(trifluoromethyl)thiophen-3-yl]oxy}piperidin-3-yl]carbonyl}-4,5,6,7-tetrahydrothieno[3,2-c]pyridin-4-yl)-N-methylpropanamide] registered an IC50 of 101 to 20000 nM. Under `CCC[C@H]1N(C(=O)c2ncccc2C(F)(F)F)CCC[C@@]1(Oc1csc(C(F)(F)F)c1)C(=O)N1CCc2ccsc2C1CC(C)(C)C(=O)OCC` (stereo partly drawn) [Compound A28, ethyl 2,2-dimethyl-3-(6-{[(2R,3S)-2-propyl-1-{[3-(trifluoromethyl)pyridin-2-yl]carbonyl}-3-{[5-(trifluoromethyl)thiophen-3-yl]oxy}piperidin-3-yl]carbonyl}-4,5,6,7-tetrahydrothieno[2,3-c]pyridin-7-yl)propanoate] stands 101 to 20000 nM; under `CCC[C@H]1N(C(=O)c2ncccc2C(F)(F)F)CCC[C@@]1(Oc1csc(C(F)(F)F)c1)C(=O)N1CCc2ccsc2C1CC(C)(C)C(=O)O` (stereo partly drawn) [Compound A29, 2,2-dimethyl-3-(6-{[(2R,3S)-2-propyl-1-{[3-(trifluoromethyl)pyridin-2-yl]carbonyl}-3-{[5-(trifluoromethyl)thiophen-3-yl]oxy}piperidin-3-yl]carbonyl}-4,5,6,7-tetrahydrothieno[2,3-c]pyridin-7-yl)propanoic acid], 1 to 100 nM. Compound `CCC[C@H]1N(C(=O)c2ncccc2C(F)(F)F)CCC[C@@]1(Oc1csc(C(F)(F)F)c1)C(=O)N1CCc2ccsc2C1CC(C)(C)C(=O)NCc1nnn[nH]1` (stereo partly drawn) [Compound A30, 2,2-dimethyl-3-(6-{[(2R,3S)-2-propyl-1-{[3-(trifluoromethyl)pyridin-2-yl]carbonyl}-3-{[5-(trifluoromethyl)thiophen-3-yl]oxy}piperidin-3-yl]carbonyl}-4,5,6,7-tetrahydrothieno[2,3-c]pyridin-7-yl)-N-(1H-tetrazol-5-ylmethyl)propanamide] displayed an IC50 of 1 to 100 nM. Under `CCC[C@H]1N(C(=O)c2ncccc2C(F)(F)F)CCC[C@@]1(Oc1csc(C(F)(F)F)c1)C(=O)N1CCc2cc(Cl)sc2C1CC(C)(C)C(=O)O` (stereo partly drawn) [Compound A31, 3-(2-chloro-6-{[(2R,3S)-2-propyl-1-{[3-(trifluoromethyl)pyridin-2-yl]carbonyl}-3-{[5-(trifluoromethyl)thiophen-3-yl]oxy}piperidin-3-yl]carbonyl}-4,5,6,7-tetrahydrothieno[2,3-c]pyridin-7-yl)-2,2-dimethylpropanoic acid] stands 1 to 100 nM; under `CCC[C@H]1N(C(=O)c2ncccc2C(F)(F)F)CCC[C@@]1(Oc1csc(C(F)(F)F)c1)C(=O)N1CCc2sc(Cl)cc2C1CCCN1CCOCC1` (stereo partly drawn) [Compound A32, 2-chloro-4-(3-morpholin-4-ylpropyl)-5-{[(2R,3S)-2-propyl-1-{[3-(trifluoromethyl)pyridin-2-yl]carbonyl}-3-{[5-(trifluoromethyl)thiophen-3-yl]oxy}piperidin-3-yl]carbonyl}-4,5,6,7-tetrahydrothieno[3,2-c]pyridine], 101 to 20000 nM.
